System: HASM cells
Test: Human airway smooth muscle cell scratch (migration) assay
Assay type: cell-based
Details: 1 μM DFPQ, PDGF, 24 hours, FIG. 4F
Description: FIGS. 4A-4F: DFPQ inhibits internalization of the β2AR and protects from agonist induced desensitization in cell and tissue models. FIG. 4A: Effect of DFPQ on agonist-promoted internalization of the β2AR. HEK 293 cells stably expressing FLAG-β2AR were pre-incubated with 0.1% DMSO or 10 μM DFPQ for 30 min and then stimulated with the indicated concentrations of ISO for up to 60 min. Cells were fixed and receptor surface expression was measured by ELISA. […] Cells were lysed and cAMP production was measured by ELISA. […] FIG. 4C: Mouse airway tissue were contracted with 1 μM methacholine for 5 min and then incubated overnight with 1 μM ISO±1 μM DFPQ. Airway slices were washed, re-contracted with methacholine, and incubated with ISO for 1 hour (n=4 bronchioles). Airway contractility was measured by luminal area of bronchioles by microscopy at various times. FIG. 4D: Bar graphs represent normalized ISO-promoted relaxation from methacholine contraction on day 2 of treatment at the 25 min timepoint from 4 tracheal rings. *, p<0.05 FIG. 4E: HASM cells were scratched and incubated overnight in PDGF containing serum free media. Cells were imaged to evaluate migration into the scratched area. FIG. 4F: Densitometric analysis of migration into scratched area (n=3 experiments). ***, p<0.001; **, p<0.01
Cell culture GLOSENSOR™ cells (Promega) were maintained in Dulbecco's modified Eagle's medium (DMEM) containing 10% fetal bovine serum (FBS) and 200 μg/ml Hygromycin B. […]® ADRB2 cells (DiscoveRx) were maintained with the AssayComplete™ Cell Culture kit (DiscoveRx catalog #92-3107G). […] Cells were read every three minutes for 18 minutes on a PolarStar Optima plate reader (BMG) to establish peak signal. ISO was added to each well to a final concentration of 1 μM, and luminescence was determined in kinetic mode at room temperature (23-25° C.). Response was analyzed relative to forskolin (7 μM) and alprenolol (1 μM) as positive and negative controls, respectively. […] Luminescence was determined at room temperature (23-25° C.) on a PolarStar Optima plate reader (BMG). […]

In the case of `Fc1ccc(Nc2nc(NC3CCCCC3)c3ccccc3n2)cc1F` [DFPQ, N^4-cyclohexyl-N^2-(3,4-difluorophenyl)quinazoline-2,4-diamine], the “effect on β-agonist (SAL or ISO) reduction of HASM migration” value is reported as “significantly enhanced”.

Source: US20240166626A1, “Compounds and Methods for Preventing, Treating, or Ameliorating Airway Disease” (THOMAS JEFFERSON UNIVERSITY, priority 2021, published 2024)
